Reference: ChEMBL document CHEMBL1152048, “N-(1-phenyl-2-benzimidazolyl)-N-phenylurea derivatives as potent in hibitors of acylcoa:cholesterol acyltransferase (ACAT)” (Bioorg Med Chem Lett, 1995)

Key:
[1] = target: T1, Acyl-CoA:cholesterol acyltransferase (Oryctolagus cuniculus, UniProt Q95214); test: In vitro inhibitory activity towards acyl CoA cholesterol acyltransferase (ACAT) of cholesterol-fed rabbits by the displacement of [14C]oleolyl-CoA
T1 sequence (Q95214 whole entry): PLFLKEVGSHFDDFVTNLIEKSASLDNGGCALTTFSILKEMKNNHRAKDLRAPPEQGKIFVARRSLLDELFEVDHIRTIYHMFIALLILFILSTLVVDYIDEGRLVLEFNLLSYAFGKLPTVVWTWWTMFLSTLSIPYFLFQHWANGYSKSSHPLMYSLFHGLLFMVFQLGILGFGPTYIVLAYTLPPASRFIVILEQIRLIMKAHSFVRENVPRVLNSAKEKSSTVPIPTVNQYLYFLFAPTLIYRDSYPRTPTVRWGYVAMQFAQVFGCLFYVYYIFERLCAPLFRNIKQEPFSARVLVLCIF

Cricetinae gen. sp. = test: Compound was tested in vivo at a dose of 10 (mg/kg) for percent inhibition in increased serum total cholesterol in golden hamsters fed with a diet containing 2% cholesterol; type: functional, Mesocricetus auratus
[2] = target: T2, Acyl-CoA:cholesterol acyltransferase (Oryctolagus cuniculus) (UniProt Q95214); test: In vitro inhibitory activity towards acyl CoA cholesterol acyltransferase (ACAT) of cholesterol-fed rabbits by the displacement of [14C]oleolyl-CoA at 1 uM
T2 sequence (whole entry): T1 sequence (Q95214 whole entry)

`Cc1ncccc1-n1c(NC(=O)Nc2c(C(C)C)cccc2C(C)C)nc2ccccc21` was tested, and the IC50 [1] was 0.1 µM.

In the case of `CC(C)c1cccc(C(C)C)c1NC(=O)Nc1nc2ccccc2n1-c1ccccc1`, the IC50 [1] is reported as 0.066 µM.

In the case of `CC(C)c1cccc(C(C)C)c1NC(=O)Nc1nc2cccnc2n1-c1ccccc1Cl`, the IC50 [1] is reported as 0.033 µM and the Reduction (Cricetinae gen. sp.) is reported as 76%.

Compound `CC(C)c1cccc(C(C)C)c1NC(=O)Nc1nc2ccccc2n1-c1c(Cl)cccc1Cl` has an IC50 [1] of 0.011 µM and a Reduction (Cricetinae gen. sp.) of 74%.

Work on `CC(C)c1cccc(C(C)C)c1NC(=O)Nc1nc2ccccc2n1-c1ccccc1C(F)(F)F` yielded an IC50 [1] of 0.072 µM.

`CC(C)c1cccc(C(C)C)c1NC(=O)Nc1nc2ccccc2n1-c1ccccc1Br` showed an IC50 [1] of 0.022 µM and a Reduction (Cricetinae gen. sp.) of 37%.

Work on `Cc1cc(C)c(NC(=O)Nc2nc3ccccc3n2-c2c(Cl)cccc2Cl)c(C)c1` yielded an inhibition [2] of 24%.

Compound `CC(C)c1cccc(C(C)C)c1NC(=O)Nc1nc2ccccc2n1-c1cccc(Cl)c1` has an IC50 [1] of 0.02 µM.

With `Cc1ccccc1-n1c(NC(=O)Nc2c(C(C)C)cccc2C(C)C)nc2ccccc21` the IC50 [1] was 0.019 µM.

`O=C(Nc1ccc(F)cc1F)Nc1nc2ccccc2n1-c1ccccc1Cl` gave an inhibition [2] of 27%.

Work on `CC(C)c1cccc(C(C)C)c1NC(=O)Nc1nc2ccccc2n1-c1ncccc1Cl` yielded an IC50 [1] of 0.1 µM.

With `Cc1cccc(C)c1NC(=O)Nc1nc2ccccc2n1-c1ccccc1Cl` the IC50 [1] was 0.42 µM.

`COc1ccccc1-n1c(NC(=O)Nc2c(C(C)C)cccc2C(C)C)nc2ccccc21` showed an IC50 [1] of 0.02 µM.

For `CC(C)c1cccc(C(C)C)c1NC(=O)Nc1nc2ccccc2n1-c1ccccc1Cl`, the IC50 [1] was 0.018 µM and the Reduction (Cricetinae gen. sp.) was 80%.

For `CC(C)c1cccc(C(C)C)c1NC(=O)Nc1nc2ccccc2n1-c1ccccc1O`, the IC50 [1] was 0.2 µM.

Compound `CC(C)c1cccc(C(C)C)c1NC(=O)Nc1nc2ccccc2n1-c1ccccc1N(C)C` has an IC50 [1] of 0.041 µM and a Reduction (Cricetinae gen. sp.) of 102%.

For `CC(C)c1cccc(C(C)C)c1NC(=O)Nc1nc2ccccc2n1-c1ccc(Cl)cc1`, the IC50 [1] was 0.28 µM.

Compound `CC(C)c1cccc(C(C)C)c1NC(=O)Nc1nc2ccccc2n1-c1cc(C(=O)O)ccc1Cl` has an inhibition [2] of 2%.
